These results are taken from paper PMC6225165, “Design and Synthesis of Novel Dehydroepiandrosterone Analogues as Potent Antiproliferative Agents” (Molecules : A Journal of Synthetic Chemistry and Natural …, 2018).

The test system of data set [1] is A549. Briefly: MTT antiproliferative assay, A549. Format: cell-based, human. The conditions noted are these: Homo sapiens, A549, 48 h, MTT. The essentials:
(§1)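 9 × 10^3 cells/well, 24 h attach; cpd 1–100 μM (4 concs) × 48 h, 37 °C, 5% CO2, DMEM/RPMI1640 + 10% FBS; MTT 2 mg·mL^−1 final, 4 h; DMSO; OD 492 nm; IC50 from % inhibition.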
(Tetrazolium dyes change colour on reduction, which living cells bring about.)

For data set [2], the system named is Hela. Briefly: MTT antiproliferative assay, Hela. The conditions noted are these: Homo sapiens, 48 h, MTT. Format: cell-based, human. In short, it runs like this:
as §1

Data set [3] concerns HepG-2. Briefly: MTT antiproliferative assay, HepG-2. Format: cell-based, human. In short, it runs like this:
as §1

The subject of data set [4] is BEL7402. Briefly: MTT antiproliferative assay, BEL7402. Format: cell-based, human. The conditions noted are these: Homo sapiens, Bel-7402, 48 h, MTT. In short, it runs like this: as §1
Data set [5] has as its system HCT116. Briefly: MTT antiproliferative assay, HCT116. Format: cell-based, human. In short, it runs like this: as §1
Data set [6] relates to MCF-7. Briefly: MTT antiproliferative assay, MCF-7. Format: cell-based, human. The essentials: as §1
Data set [7] relates to human normal liver (L02) cells. Briefly: MTT assay on normal cell line L02. Format: cell-based.
Data set [8] deals with HepG-2 cells. Briefly: Cell cycle analysis by flow cytometry (PI). The conditions noted are these: 48 h, control 11.47%. Format: cell-based, human. The protocol:
HepG-2 cells were plated in […] (5.0 × 10^5 cells per well) and incubated at 37 °C for 12 h. Exponentially growing cells were then incubated with compound 2n at different concentrations (5, 10 and 20 μM). After 48 h, untreated cells (control) or cells treated with compound 2n were centrifuged at 1000 rpm (177 g) for 10 min, and then fixed in 70% ethanol at −20 °C for at least 24 h. The cells were subsequently resuspended in phosphate-buffered saline (PBS) containing 0.1mg mL^−1 RNase A and 5 μg·mL^−1 propidium iodide (PI). The cellular DNA content for the cell cycle distribution analysis was measured by flow cytometry using a FACS Calibur flow cytometer with Cell Quest software (Becton-Dickinson, Franklin Lakes, NJ, USA), plotting at least 30,000 events per sample. The percentage of cells in the G1, S and G2 phases of the cell cycle were determined using the ModFit LT V4.0 software package (Verity Software, Topsham, ME, USA).
For orientation: A flow cytometer gives signals particle by particle.

Data set [9] concerns HepG-2 cells. Briefly: Apoptosis analysis by flow cytometry (annexin V-FITC/PI). Format: cell-based, human. Particulars: 48 h, control 13.65%. As for the experimental part:
Apoptosis was detected using an Apoptosis Detection Kit (Invitrogen, Eugene, OR, USA). In brief, cells were cultured in […] (5.0 × 10^5 cells per well) and incubated at 37 °C for 12 h. Cells with exponential growth were then incubated with compound 2n at different concentrations (5, 10 and 20 μM). Following 48 h of incubation, the cells were collected, washed twice with PBS and once with 1binding buffer, and then stained with […] of annexin V-FITC and […] of PI (5 mg·mL^−1) in 1 × binding buffer for 30 min at 20 °C in the dark. Apoptotic cells were enumerated using a FACSCalibur flow cytometer with Cell Quest software (Becton–Dickinso, Franklin Lakes, NJ, USA).

The test system of data set [10] is A549. Particulars: literature lead, Figure 1; cited from earlier work.
Data set [11] relates to AGS. Particulars: literature lead, Figure 1; cited from earlier work.
For data set [12], the system named is HCT116. Also noted: method as in PMID 26854375. The conditions noted are these: literature lead, Figure 1; cited from earlier work.
Data set [13] deals with KB. Also noted: method as in PMID 23635011. The conditions noted are these: literature lead, Figure 1; cited from earlier work.
Setting [14] is: IC50 on normal cells (L02)/IC50 on tumour cells.

Read-outs that look alike come from different tables or passages of the source.

In general, inhibition refers to the percentage by which the read-out fell short of the control. For orientation: IC50 means the concentration at which inhibition is half-maximal. Take `CC12CCC3C(CC=C4CC(O)CCC43C)C1C/C(=C\c1cn(-c3ccc(I)cc3)nn1)C2=O` (stereo not drawn) [Compound 2n, (E)-3-hydroxy-16-((1-(4-iodophenyl)-1H-1,2,3-triazol-4-yl)methylene)-10,13-dimethyl-1,3,4,7,8,9,10,11,12,13,15,16-dodecahydro-2H-cyclopenta[a]phenanthren-17(14H)-one]: the inhibition at 100 µM was 46.8% in data set [1] (100 μM, read-out: % Growth Inhibition at 100 μM A549); 17.3% in data set [2] (100 μM, read-out: % Growth Inhibition at 100 μM Hela); 83% in data set [3] (Homo sapiens, HepG2, 100 μM, 48 h, MTT, read-out: % Growth Inhibition at 100 μM HepG-2); under 5% in [4] (100 μM, read-out: % Growth Inhibition at 100 μM BEL7402); 65.5% in data set [5] (Homo sapiens, HCT-116, 100 μM, 48 h, MTT, read-out: % Growth Inhibition at 100 μM HCT116); 81.3% in data set [6] (Homo sapiens, MCF7, 100 μM, 48 h, MTT, read-out: % Growth Inhibition at 100 μM MCF-7). The inhibition at 100 µM in [7] (Homo sapiens, L02, 100 μM, 48 h, MTT, normal cells, read-out: % Growth Inhibition at 100 μM L02) was 34.2%. Also, the concentration for half-maximal inhibition (IC50) was over 100 µM in data set [1]; over 100 µM in data set [2] (HeLa); 9.1 µM in data set [3] (Homo sapiens, HepG2, 48 h, MTT); over 100 µM in data set [4]; 31 µM in data set [5] (Homo sapiens, HCT-116, 48 h, MTT); 9.18 µM in data set [6] (Homo sapiens, MCF7, 48 h, MTT). The compound also registered an IC50 in data set [7] (Homo sapiens, L02, 48 h, MTT, normal cell line) of over 100 µM. Also, the “Selectivity Index HepG-2” value in [3] (setting [14]) is reported as over 10.99. Further, in [5] (setting [14]), the “Selectivity Index HCT116” value is over 3.22. In addition, the “Selectivity Index MCF-7” value in [6] (setting [14]) is given as over 10.89. In addition, the “toxicity in human normal liver (L02) cells” value in data set [7] (in words) is listed as “not toxic”. Further, the “proportion of cells in the G2 phase” value in [8] (HepG-2, 5.0 µM) worked out at 11.14%; in data set [8] (HepG-2, 10.0 µM), 0.41%; in data set [8] (HepG-2, 20.0 µM), 0.0%. Moreover, the “percentage of total apoptotic cells (right quadrants)” value was 22.24% in data set [9] (HepG-2, 5.0 µM) and 27.24% in data set [9] (HepG-2, 10.0 µM).
For the compound `COc1ccccc1-n1cc(COC(=O)C23CCC(C)C(C)C2C2=CCC4C5(C)CCC(=O)C(C)(C)C5CCC4(C)C2(C)CC3)nn1` (stereo not drawn) [Compound A], the IC50 in data set [10] was under 0.1 µM.
As for `O=c1ccc2cc3ccoc3c(OCc3cn(-c4ccc(C(F)(F)F)cc4)nn3)c2o1` [Compound B], the IC50 in data set [11] was 7.5 µM.
In the case of `CC1CCC2(C(=O)O)CCC3(C)C(=CCC4C5(C)CC(=Cc6cc(O)ccc6O)C(=O)C(C)(C)C5CCC43C)C2C1C` (stereo not drawn) [Compound C], in data set [12], the IC50 is under 0.1 µM.
For `C[C@]12CC[C@H](O)CC1=CCC1C2CC[C@]2(C)C(=O)/C(=C/c3cccc(Cl)c3)CC12` (stereo partly drawn) [Compound D], in data set [13], the IC50 is 0.6 µM.
